Calls of active or inactive are those of the source.
Experiments:
[1] = target: T1, Carboxy-terminal domain RNA polymerase II polypeptide A small phosphatase 1 (Homo sapiens, UniProt Q9GZU7); assay: inhibitors of CTDSP1, concentration-response testing, biochemical assay, absorbance-based, actives from ultra-high-throughput screening (AID 540297); format: functional
T1 sequence (Q9GZU7 whole entry): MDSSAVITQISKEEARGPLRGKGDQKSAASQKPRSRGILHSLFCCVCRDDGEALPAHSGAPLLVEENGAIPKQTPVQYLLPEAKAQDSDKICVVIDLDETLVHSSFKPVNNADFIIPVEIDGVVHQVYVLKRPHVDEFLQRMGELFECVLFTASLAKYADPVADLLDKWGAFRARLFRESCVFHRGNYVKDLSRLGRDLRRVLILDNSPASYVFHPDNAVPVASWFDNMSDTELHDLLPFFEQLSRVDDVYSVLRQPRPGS

[2] = Luminescence Cell-Based Dose Response HTS to Identify Inhibitors of 5'UTR Stem-Loop Driven Prion Protein mRNA Translation in H4 Neuroglioblastoma Cells. [Related pubchem assays: 1827 (Project Summary), 1813 (Primary HTS)]; format: functional
[3] = inhibitors of SNCA 5'UTR-driven reporter translation, confirmation, H4 neuroglioma cells, luminescence (AID 1988); format: functional, cell-based
[4] = inhibitors of firefly luciferase expression or activity, dose response, H4 neuroglioma cells, luminescence (AID 1990); format: functional, cell-based
[5] = target: T2, Calpain-2 catalytic subunit (Sus scrofa, UniProt P43367); assay: pig calpain II inhibitor potency, dose response, biochemical, fluorogenic peptide substrate (AID 1420); format: functional
T2 sequence (P43367 whole entry): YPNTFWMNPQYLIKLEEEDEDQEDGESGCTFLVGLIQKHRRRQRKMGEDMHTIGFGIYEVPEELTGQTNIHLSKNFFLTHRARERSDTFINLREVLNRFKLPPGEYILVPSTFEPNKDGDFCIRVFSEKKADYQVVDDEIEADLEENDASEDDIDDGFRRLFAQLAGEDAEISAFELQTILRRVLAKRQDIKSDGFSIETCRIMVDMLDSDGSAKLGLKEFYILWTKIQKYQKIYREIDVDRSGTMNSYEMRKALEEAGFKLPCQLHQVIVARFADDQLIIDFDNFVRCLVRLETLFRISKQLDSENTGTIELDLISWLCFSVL

[6] = target: T3, Polyadenylate-binding protein 1 (Homo sapiens, UniProt P11940); assay: PABP1 MLLE–PAM2 binding inhibitor potency, dose response, biochemical, fluorescence polarization, FITC-PAM2 peptide (AID 602259); format: functional; settings: read-out: IC50_Mean
T3 sequence (P11940 whole entry): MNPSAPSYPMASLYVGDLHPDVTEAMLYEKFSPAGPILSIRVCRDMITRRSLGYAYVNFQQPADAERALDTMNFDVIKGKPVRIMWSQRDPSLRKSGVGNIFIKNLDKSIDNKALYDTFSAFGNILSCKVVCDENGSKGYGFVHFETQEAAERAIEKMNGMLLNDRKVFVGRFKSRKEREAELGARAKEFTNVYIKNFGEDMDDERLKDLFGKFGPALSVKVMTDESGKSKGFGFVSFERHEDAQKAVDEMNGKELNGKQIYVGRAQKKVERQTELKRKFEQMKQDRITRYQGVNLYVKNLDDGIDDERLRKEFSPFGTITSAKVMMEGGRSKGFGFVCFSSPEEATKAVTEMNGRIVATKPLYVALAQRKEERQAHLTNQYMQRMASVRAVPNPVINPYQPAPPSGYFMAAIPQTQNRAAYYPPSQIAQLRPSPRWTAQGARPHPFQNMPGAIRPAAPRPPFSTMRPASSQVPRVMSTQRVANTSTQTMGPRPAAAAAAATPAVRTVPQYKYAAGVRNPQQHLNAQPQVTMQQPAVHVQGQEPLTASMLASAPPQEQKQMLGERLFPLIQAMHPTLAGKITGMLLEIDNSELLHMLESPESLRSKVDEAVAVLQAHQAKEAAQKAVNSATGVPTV

[7] = target: T3, Polyadenylate-binding protein 1; assay: PABP1 MLLE–PAM2 interaction inhibitors, dose response, miRNA deadenylation inhibitor project, biochemical, fluorescence polarization, Cy5-PAM2 peptide, secondary (AID 602260); format: functional; settings: read-out: IC50_Mean
[8] = Luminescence Cell-Based Dose Response HTS to Identify Activators of Luciferase Translation or Activity in H4 […] Cells. [Related pubchem assays: 1829 (Project Summary), 1814 (Primary HTS)]; format: functional
[9] = Luminescence Cell-Based Dose Confirmation HTS to Identify Activators of 5'UTR Stem-Loop Driven Alpha-Synuclein mRNA Translation in H4 Neuroglioblastoma Cells. [Related pubchem assays: 1829 (Project Summary), 1814 (Primary HTS)]; format: functional
[10] = system: H4; assay: Luminescence Cell-Based Dose Response HTS to Identify Activators of 5'UTR Stem-Loop Driven Prion Protein mRNA Translation in H4 Neuroglioblastoma Cells. [Related pubchem assays: 1829 (Project Summary), 1814 (Primary HTS)]; format: functional; settings: Homo sapiens
[11] = target: Cytochrome P450 2C19 (Homo sapiens, UniProt P33261); assay: Cytochrome panel assay with activity outcomes. Panel member name: p450-cyp2c19 Compounds with AC50 equal or less than 10 uM are considered active; format: functional; settings: read-out: AC50
Cytochrome P450 2C19, sequence (P33261 whole entry): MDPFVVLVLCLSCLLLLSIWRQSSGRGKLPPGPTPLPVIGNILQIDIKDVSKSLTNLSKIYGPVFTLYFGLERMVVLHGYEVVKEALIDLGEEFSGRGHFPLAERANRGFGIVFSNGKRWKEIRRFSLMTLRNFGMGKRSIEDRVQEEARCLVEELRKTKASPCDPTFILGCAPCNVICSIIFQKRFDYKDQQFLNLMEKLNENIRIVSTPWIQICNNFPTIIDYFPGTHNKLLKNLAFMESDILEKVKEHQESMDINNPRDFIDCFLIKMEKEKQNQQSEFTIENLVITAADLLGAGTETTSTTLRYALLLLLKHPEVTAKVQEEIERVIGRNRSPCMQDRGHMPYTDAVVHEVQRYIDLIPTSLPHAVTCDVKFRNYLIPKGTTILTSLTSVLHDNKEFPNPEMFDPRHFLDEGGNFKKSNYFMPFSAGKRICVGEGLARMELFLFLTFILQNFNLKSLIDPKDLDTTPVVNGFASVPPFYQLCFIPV

[12] = C. albicans growth with fluconazole, confirmation, fluorescence, retest (AID 2467); format: functional, cell-based
[13] = NIH-3T3 fibroblast cytotoxicity, dose response, cytotoxicity control, cell-based, fluorescence, Alamar Blue, secondary assay (AID 2327); format: functional;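 note: NIH-3T3 mouse fibroblasts cultured with fluconazole at 8 µg/mL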
[14] = system: BJ; assay: cytotoxicity toward BJ-TERT fibroblasts, dose response, cell-based, RAS-independent, luminescence (AID 1933); format: functional; settings: Homo sapiens
[15] = system: BJ; assay: cells; format: functional, cell-based; settings: Homo sapiens
[16] = system: BJ; assay: cytotoxicity toward BJ-TERT-LT-ST fibroblasts, dose response, cell-based, RAS-independent, luminescence (AID 1935); format: functional; settings: Homo sapiens;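 note: BJ fibroblasts immortalized with TERT plus LT and ST oncogenes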
[17] = cytotoxicity toward DRD oncogenic fibroblasts, dose response, cell-based, non-viral oncogenic, luminescence (AID 1934); format: functional; settings: Homo sapiens
[18] = system: H9c2; assay: cells; format: functional, cell-based; settings: Rattus norvegicus, H9c2, Myocardium;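 note: confirmatory concentration-response retest of ultra-high-throughput screening hits for modulation of myocardial damage; cell death induced by hydrogen peroxide oxidative stress; compound pretreatment for 60 min then peroxide exposure for 2 h; potency is for protecting the cells against peroxide damage rather than for killing them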

## O=C(COC(=O)/C=C/c1ccco1)Nc1ccc(F)cc1Cl
[1]
  IC50: 36.6 µM (active)

## COc1ccc(CC(=O)NCc2ccc(-n3cccc3)cc2)cc1OC
[2]
  EC50: 9.97 µM (active)
[3]
  EC50: 6.37 µM (active)
[4]
  EC50: > 120 µM (not active)

## O=C(Nc1ccc(Cl)c(Cl)c1)N1N=CCC1c1ccccc1 (centres undefined)
[5]
  IC50: 8.45 µM (not active)

## Fc1ccc(-[n+]2nc(Nc3ccccc3)sc2-c2cccc(Cl)c2Cl)cc1
[6]
  IC50: > 66 µM (inactive)
[7]
  IC50: > 66 µM (inactive)

## Cc1ccc(O)c(NC(=S)NC(=O)/C=C/c2ccccc2)c1
[6]
  IC50: > 66 µM (inactive)
[7]
  IC50: > 66 µM (inactive)

## N#CC1=C(N)N=C(SCc2cccc3ccccc23)C(C(N)=O)C12CCCCC2 (centres undefined)
[6]
  IC50: > 66 µM (inactive)
[7]
  IC50: > 66 µM (inactive)

## CC(NC(=O)CCc1nnc(-c2ccc(-c3ccccc3)cc2)o1)c1nccs1 (centres undefined)
[2]
  EC50: 10 µM (active)

## O=C(CSc1ncn(-c2ccccc2)n1)c1cccs1
[8]
  EC50: 25.5 µM (active)
[9]
  EC50: 0.255 µM (active)
[10]
  EC50: > 120 µM (not active)
[6]
  IC50: > 66 µM (inactive)
[7]
  IC50: > 66 µM (inactive)

## C[n+]1cn(CC(O)COCc2ccccc2)c2ccccc21 (centres undefined)
[1]
  IC50: 10.8 µM (active)
[11]
  AC50: 15.8 µM (inconclusive)

## O=C(Nc1ccc(NC(=O)c2cccs2)cc1)c1ccc(Br)o1
[1]
  IC50: 7.45 µM (active)
[12]
  EC50: 2.22 µM (active)
[13]
  EC50: > 160 µM (inconclusive)

## N#C/C(=C\c1cccnc1)c1nc2ccccc2[nH]1
[14]
  EC50: 23.5 µM (active)
[15]
  EC50: > 150 µM (not active)
[16]
  EC50: > 75 µM (not active)
[17]
  EC50: 38 µM (active)

## CCOc1cc(C2C3=C(O)CCCC3=NC3=C2C(=O)CCC3)ccc1OCCO (centres undefined)
[6]
  IC50: > 66 µM (inactive)
[7]
  IC50: > 66 µM (inactive)

## COc1cc2c(C#CCO)c(-c3ccc(C#N)cc3)oc(=O)c2cc1OC
[1]
  IC50: 8.45 µM (active)

## CS(=O)(=O)N(CC(=O)NCCc1ccccc1)c1cccc([N+](=O)[O-])c1
[5]
  IC50: 5.74 µM (not active)

## COc1ccc(/C=C/C(=O)NC(=S)Nc2ccc(S(=O)(=O)Nc3nccnc3OC)cc2)cc1
[6]
  IC50: > 66 µM (inactive)
[7]
  IC50: > 66 µM (inactive)

## COc1ccccc1CNC(=O)COc1cc2c(c3oc(=O)cc(C)c13)CCC(C)(C)O2
[2]
  EC50: > 120 µM (not active)
[3]
  EC50: > 120 µM (not active)
[4]
  EC50: 16 µM (active)

## Cc1cc(C(=O)N/N=C/c2cc(Br)ccc2OC(=O)c2ccccc2Cl)[nH]n1
[2]
  EC50: 18.8 µM (active)
[3]
  EC50: > 120 µM (not active)
[18]
  IC50: > 79 µM (inactive)
[4]
  EC50: 13.4 µM (active)

Source: ChEMBL document CHEMBL1201862, “PubChem BioAssay data set” (2004)
